According to patent US20100298141A1, “SUBSTITUTED PYRIDINE N-OXIDE HERBICIDES” (E. I. DU PONT DE NEMOURS AND COMPANY, priority 2007, published 2010):

Tests used:
crabgrass = experiment: Test A pre-/postemergence greenhouse test; type: in vivo, Digitaria sanguinalis; conditions: for Plant response rating, Crabgrass, Large: 0 to 100 scale where 0 is no effect and 100 is complete control; for Crabgrass, Large plant response rating: 0 to 100 scale
In short: (§1)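 Pots of loam–sand soil sown with the test species are sprayed preemergence on the soil surface; emerged seedlings (1–2 leaves, 2–10 cm) are sprayed postemergence at the same time. The vehicle is a non-phytotoxic solvent mixture with surfactant. Injury is scored visually after ~10 d in greenhouse.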

yellow nutsedge = experiment: Test C pre-/postemergence test; type: in vivo, Cyperus esculentus
In short: (§2)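 Compounds in a non-phytotoxic solvent with surfactant applied preemergence to seeded pots and, at the same time, postemergence to plants 2–18 cm tall (1- to 4-leaf stage). Paddy tests: pots flooded to 3 cm, compound applied into the water, depth held throughout.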

wheat = experiment: Test A pre-/postemergence greenhouse test; type: in vivo, Triticum aestivum; conditions: for Wheat plant response rating: 0 to 100 scale
In short: as §1

morningglory [1] = experiment: Test A pre-/postemergence greenhouse test; type: in vivo, Ipomoea spp.; conditions: for Plant response rating, Morningglory: 0 to 100 scale where 0 is no effect and 100 is complete control; for Morningglory plant response rating: 0 to 100 scale
In short: as §1

Goosegrass = experiment: Test C pre-/postemergence test; type: in vivo, Eleusin indica
In short: as §2

soybean = experiment: Test C pre-/postemergence test; type: in vivo, Glycine max
In short: as §2

cocklebur = experiment: Test C pre-/postemergence test; type: in vivo, Xanthium strumarium
In short: as §2

giant foxtail [2] = experiment: Test C pre-/postemergence test; type: in vivo, Setaria faberii
In short: as §2

lambsquarters = experiment: Test C pre-/postemergence test; type: in vivo, Chenopodium album
In short: as §2

morningglory [3] = experiment: Test C pre-/postemergence test; type: in vivo, Ipomoea coccinea
In short: as §2

woolly cupgrass = experiment: Test C pre-/postemergence test; type: in vivo, Eriochloa villosa
In short: as §2

corn = experiment: Test C pre-/postemergence test; type: in vivo, Zea mays
In short: as §2

downy brome = experiment: Test C pre-/postemergence test; type: in vivo, Bromus tectorum
In short: as §2

johnsongrass = experiment: Test C pre-/postemergence test; type: in vivo, Sorghum halepense
In short: as §2

giant foxtail [4] = experiment: Test A pre-/postemergence greenhouse test; type: in vivo, Setaria faberi; conditions: for Plant response rating, Foxtail, Giant: 0 to 100 scale where 0 is no effect and 100 is complete control; for Foxtail, Giant plant response rating: 0 to 100 scale
In short: as §1

umbrella sedge = experiment: Test C flooded paddy test; type: in vivo, Cyperus difformis; conditions: Flood
In short: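 Ratings were visual and made relative to untreated controls after 13 to 15 greenhouse days.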

common ragweed = experiment: Test C pre-/postemergence test; type: in vivo, Ambrosia elation
In short: as §2

[5] = Postemergence, 500 g ai/ha, 0 is no effect, 100 is complete control
[6] = Preemergence, 125 g ai/ha, 0 no effect, 100 complete control
[7] = 62 g ai/ha, Preemergence, scale 0 to 100
[8] = 125 g ai/ha, preemergence, scale 0 (no effect) to 100 (complete control)
[9] = Preemergence, 31 g ai/ha, scale 0 to 100 (0 no effect, 100 complete control)
[10] = preemergence, 250 g ai/ha, scale 0 (no effect) to 100 (complete control)

Cn1nc(C(F)(F)C(F)(F)F)c(C[S+]([O-])c2ccc(Cl)c[n+]2[O-])c1OCC(F)(F)F (stereo not drawn) [Compound 92]
0: Plant response rating, Soybean (soybean; [9]) | Cocklebur plant response rating (cocklebur; [7]) | Cocklebur plant response rating (cocklebur; [8]) | Plant response rating, Cocklebur (cocklebur; [9]) | Plant response rating, Morningglory (morningglory [3]; [9])
65: Plant response rating, Cupgrass, Woolly (woolly cupgrass; [9])
90: Crabgrass, Large plant response rating (crabgrass; [5]) | Plant response rating, Crabgrass, Large (crabgrass; Preemergence, 500 g ai/ha) | Nutsedge, Yellow plant response rating (yellow nutsedge; [7]) | Nutsedge, Yellow plant response rating (yellow nutsedge; [8]) | Plant response rating, Nutsedge, Yellow (yellow nutsedge; [9]) | Wheat plant response rating (wheat; Preemergence, 500 g ai/ha, 0 no effect, 100 complete control) | Goosegrass plant response rating (Goosegrass; [7]) | Goosegrass plant response rating (Goosegrass; [8]) | Plant response rating, Goosegrass (Goosegrass; [9]) | Cupgrass, Woolly plant response rating (woolly cupgrass; [7]) | Foxtail, Giant plant response rating (giant foxtail [4]; [5]) | Foxtail, Giant plant response rating (giant foxtail [4]; [6])
20: Plant response rating, Sedge, Umbrella (umbrella sedge; 62 g ai/ha, scale 0 to 100 (0 no effect, 100 complete control))
55: Cocklebur plant response rating (cocklebur; [10])
75: Plant response rating, Corn (corn; [9])
85: Morningglory plant response rating (morningglory [3]; [8]) | Bromegrass, Downy plant response rating (downy brome; [8]) | Ragweed plant response rating (common ragweed; [7])
70: Plant response rating, Crabgrass, Large (crabgrass; Postemergence, 125 g ai/ha) | Plant response rating, Wheat (wheat; Postemergence, 125 g ai/ha, 0 to 100 scale where 0 is no effect and 100 is complete control) | Wheat plant response rating (wheat; [5]) | Wheat plant response rating (wheat; [6]) | Plant response rating, Morningglory (morningglory [1]; Postemergence, 125 g ai/ha) | Bromegrass, Downy plant response rating (downy brome; [7])
100: Nutsedge, Yellow plant response rating (yellow nutsedge; [10]) | Morningglory plant response rating (morningglory [1]; [5]) | Morningglory plant response rating (morningglory [1]; [6]) | Plant response rating, Morningglory (morningglory [1]; Preemergence, 500 g ai/ha) | Goosegrass plant response rating (Goosegrass; [10]) | Foxtail, Giant plant response rating (giant foxtail [2]; [7]) | Foxtail, Giant plant response rating (giant foxtail [2]; [8]) | Foxtail, Giant plant response rating (giant foxtail [2]; [10]) | Lambsquarters plant response rating (lambsquarters; [7]) | Lambsquarters plant response rating (lambsquarters; [8]) | Plant response rating, Lambsquarters (lambsquarters; [9]) | Lambsquarters plant response rating (lambsquarters; [10]) | Morningglory plant response rating (morningglory [3]; [10]) | Cupgrass, Woolly plant response rating (woolly cupgrass; [10]) | Bromegrass, Downy plant response rating (downy brome; [10]) | Johnsongrass plant response rating (johnsongrass; [8]) | Johnsongrass plant response rating (johnsongrass; [10]) | Plant response rating, Foxtail, Giant (giant foxtail [4]; Preemergence, 500 g ai/ha) | Plant response rating, Sedge, Umbrella (umbrella sedge; 250 g ai/ha, scale 0 to 100, 0 no effect, 100 complete control, 13 to 15 days) | Ragweed plant response rating (common ragweed; [8]) | Ragweed plant response rating (common ragweed; [10])
50: Plant response rating, Bromegrass, Downy (downy brome; [9])
95: Corn plant response rating (corn; [7])
98: Plant response rating, Foxtail, Giant (giant foxtail [2]; [9]) | Cupgrass, Woolly plant response rating (woolly cupgrass; [8]) | Corn plant response rating (corn; [8]) | Corn plant response rating (corn; [10]) | Johnsongrass plant response rating (johnsongrass; [7])
80: Crabgrass, Large plant response rating (crabgrass; [6]) | Soybean plant response rating (soybean; [10]) | Morningglory plant response rating (morningglory [3]; [7]) | Plant response rating, Johnsongrass (johnsongrass; [9]) | Plant response rating, Foxtail, Giant (giant foxtail [4]; Postemergence, 125 g ai/ha)
